# Activity calls are given as the source filed them. How the calls were made is not given here.
# Target: Microphthalmia-associated transcription factor (Homo sapiens) (UniProt O75030)
# Experiment: MITF inhibitors by FRET titration, dose response, biochemical, high throughput (AID 1259375);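 further: FRET between CFP-tagged and YFP-tagged MITF protein partners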
# Settings: FRET biochemical assay, MITF inhibition
# Sequence of Microphthalmia-associated transcription factor (Homo sapiens) (O75030 whole entry, looked up): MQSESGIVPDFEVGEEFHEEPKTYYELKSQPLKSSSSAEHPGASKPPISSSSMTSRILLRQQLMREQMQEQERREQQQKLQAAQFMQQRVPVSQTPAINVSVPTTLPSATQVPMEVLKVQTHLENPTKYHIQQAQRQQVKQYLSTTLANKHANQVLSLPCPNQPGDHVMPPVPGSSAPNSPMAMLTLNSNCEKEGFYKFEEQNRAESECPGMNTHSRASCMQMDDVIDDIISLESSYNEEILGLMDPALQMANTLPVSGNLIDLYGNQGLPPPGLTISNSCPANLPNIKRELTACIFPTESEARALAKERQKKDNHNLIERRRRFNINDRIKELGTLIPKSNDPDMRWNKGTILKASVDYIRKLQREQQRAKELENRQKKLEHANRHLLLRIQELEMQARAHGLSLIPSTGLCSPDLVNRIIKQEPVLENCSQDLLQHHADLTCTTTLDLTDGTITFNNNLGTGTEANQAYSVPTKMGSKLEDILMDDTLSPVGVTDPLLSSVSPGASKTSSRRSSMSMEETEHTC
row,SMILES,IC50
1,COc1ccc(C)cc1NC(=O)C(NCC(O)c1ccccc1)c1ccccc1 (stereo not drawn),> 7.02 µM (inactive)
2,CN1CC[C@H](Oc2cc(-c3cn[nH]c3)ccc2NC(=O)OCc2ccccc2)C1,> 6.48 µM (inactive)
3,O=C(NCCN1CCOCC1)c1cccc(CN(C(=O)c2nc3ccc(-c4cn[nH]c4)cc3s2)C2CC2)c1,> 6.48 µM (inactive)
4,CC(=C/C(=O)O)/C=C/c1ccoc1,> 9.75 µM (inactive)
5,NC(=O)COC(=O)/C=C/c1ccc(I)o1,> 7.27 µM (inactive)
6,O=C1CCCC2=C1C(c1ccc([N+](=O)[O-])o1)C1=C(CCCC1=O)O2,> 7.09 µM (inactive)
7,O=C(O)c1ccc(CNC(=O)c2cocc2C(=O)O)o1,> 7.32 µM (inactive)
8,O=C(O)COc1ccc(-n2cccc2)cc1,> 6.48 µM (inactive)
9,COC(C)(C)CNC(=O)C1CCN(C2CCN(Cc3cccc(C)n3)CC2)CC1,> 6.48 µM (inactive)
10,CCn1ccnc1CN1CCN(Cc2cccc(OC)c2)C(CCO)C1 (stereo not drawn),> 6.48 µM (inactive)
11,O=C(O)c1ccc(-n2cccc2)cc1Cl,> 6.48 µM (inactive)
12,CC(Oc1ccc(O)cc1)(P(=O)(O)O)P(=O)(O)O,> 6.48 µM (inactive)
13,O=C(COC(=O)/C=C/c1ccco1)COC(=O)/C=C/c1ccco1,> 7.07 µM (inactive)
14,O=C(/C=C/c1ccc(-c2cccc(C(F)(F)F)c2)o1)c1ccco1,> 6.63 µM (inactive)
15,NC(=O)c1ccc2nc(-c3cccs3)sc2c1,> 6.18 µM (inactive)
16,O=C1N[C@@H](Cc2ccccc2)C(=O)N2CCN(C(=O)NC3CCCCC3)C[C@H]12,> 6.48 µM (inactive)
17,COc1cc(OC)c(CN2CCCC(O)C2)cc1Br (stereo not drawn),> 6.48 µM (inactive)
18,COc1cccc(CN2CCN(C(=O)c3ccc(F)cc3)CC2)c1,> 5.27 µM (inactive)
19,CN1C(=O)[C@H]2CN(C(=O)NCc3ccccc3)CCN2C(=O)[C@@H]1Cc1ccccc1,> 6.48 µM (inactive)
20,O=C(NNC(=S)Nc1ccccc1)C(=O)NNC(=S)Nc1ccccc1,> 6.67 µM (inactive)
21,Cc1cc2c(c(=O)[nH]1)C(=O)O/C2=C\c1ccc(C)o1,> 6.86 µM (inactive)
22,CC[C@H](C)[C@@H]1NC(=O)[C@H]2CN(C(=O)Nc3cccc(F)c3)CCN2C1=O,> 6.48 µM (inactive)
23,CCN(CC)c1ncnc2c1ncn2[C@@H]1O[C@H](COP(=O)(O)OP(=O)(O)C(Br)(Br)P(=O)(O)O)C(O)[C@@H]1O (stereo partly drawn),> 6.48 µM (inactive)
24,Cc1ccc(C(=O)Nc2ccc([N+](=O)[O-])cn2)o1,> 6.48 µM (inactive)

row,SMILES,IC50
1,CC(=O)NCC(c1cccs1)S(=O)(=O)c1ccc(C)cc1 (stereo not drawn),> 6.41 µM (inactive)
2,COc1ccc(CC2NCCc3cc(OC)c(OC)cc32)cc1OC (stereo not drawn),0.925 µM
3,CC(C)NC(=O)/C(C#N)=C/c1ccc(-c2ccc([N+](=O)[O-])cc2Br)o1,> 7.06 µM (inactive)
4,O=[N+]([O-])c1ccc(N/N=C/c2ccco2)c(S(=O)(=O)N2CCOCC2)c1,> 6.48 µM (inactive)
5,O=C(/C=C/c1ccco1)NC(=S)Nc1cccc(C(=O)O)c1,> 6.48 µM (inactive)
6,COc1ccc2c(c1)CC(C(=O)Nc1ccc(-c3cn[nH]c3)cc1OCC(N)=O)CO2 (stereo not drawn),> 6.48 µM (inactive)
7,Cc1cccc(C(=O)Nc2c3c(nn2-c2ccc(F)cc2)CSC3)c1,> 5.53 µM (inactive)
8,CSc1ccc(C(=O)O)s1,> 10.2 µM (inactive)
9,Cc1cc(CSC(=N)N)c(O)c(C)n1,> 6.48 µM (inactive)
10,Cc1cc(OCCOCCN2CCNCC2)ccc1Cl,> 6.48 µM (inactive)
11,CCN1CCN(Cc2coc3ccccc3c2=O)CC1,> 6.48 µM (inactive)
12,O=C(NCCc1ccc(O)cc1)c1ccnc(-c2cccs2)c1,> 6.77 µM (inactive)
13,COc1cc(C(=O)N2CCN(Cc3ccccc3C)CC2)cc(OC)c1OC,> 5.62 µM (inactive)
14,O=C(Nc1ccc(-c2cn[nH]c2)c(C(F)(F)F)c1)C1COc2ccccc2O1 (stereo not drawn),> 6.48 µM (inactive)
15,CC(C)C[C@@H]1NC(=O)[C@H]2CN(C(=O)NCc3ccccc3)CCN2C1=O,> 6.48 µM (inactive)
16,CCN(C(=O)C1COc2ccccc2O1)C12CC3CC(CC(C3)C1)C2 (stereo not drawn),> 6.83 µM (inactive)
17,N#Cc1c(-c2ccc3c(c2)OCO3)nc(N2CCCCC2)[nH]c1=O,> 6.48 µM (inactive)
18,O=C(/C=C/c1ccco1)NCCCCCCNC(=O)/C=C/c1ccco1,> 6.48 µM (inactive)
19,COc1ccc(OC)c(NC(=O)c2cc3ccc(O)cc3oc2=Nc2ccc(C(=O)O)cc2)c1,> 5.54 µM (inactive)
20,C[C@H]1C(=O)N2CCN(C(=O)NC3CCCCC3)C[C@@H]2C(=O)N1C,> 6.48 µM (inactive)
21,O=C(NC1CCCCC1)N1CCN2C(=O)[C@@H]3C[C@@H](O)CN3C(=O)[C@H]2C1,> 6.48 µM (inactive)
22,O=C(/C=C/c1ccco1)NCc1cccc(CNC(=O)/C=C/c2ccco2)c1,> 6.48 µM (inactive)
23,Nc1ccc(NCCO)c(N)c1,> 5.9 µM (inactive)
24,CN(C)/C=C/C=C/C(=O)C1CCC/C(=C\C=C\N(C)C)C1=O (stereo not drawn),> 6.48 µM (inactive)

row,SMILES,IC50
1,NC(=O)CSc1ccc(C(N)=O)cc1[N+](=O)[O-],> 7.11 µM (inactive)
2,c1ccc2c(c1)OCC(c1nc3c(-c4ccncc4)cncc3[nH]1)O2 (stereo not drawn),> 6.48 µM (inactive)
3,C[C@@H](OCc1ccccc1)[C@@H]1NC(=O)[C@H]2CN(C(=O)Nc3cccc(F)c3)CCN2C1=O,> 6.48 µM (inactive)
4,Nc1ccc(O)c(C(=O)O)c1,2.52 µM
5,CCc1ccc(NC(=O)CCc2nc(C3=CCN(C)CC3)no2)cc1,> 6.48 µM (inactive)
6,O=C1N[C@@H](Cc2ccc(O)cc2)C(=O)N2CCN(C(=O)NCc3ccccc3)C[C@H]12,> 6.48 µM (inactive)
7,O=C(O)C1CC=CCC1C(=O)Nc1nncs1 (stereo not drawn),> 6.48 µM (inactive)
8,NC(=O)c1ccc(N=Cc2cc3c(cc2[N+](=O)[O-])OCO3)cc1,4.37 µM
9,CC(C)C[C@H]1C(=O)N2CCN(C(=O)NC3CCCCC3)C[C@@H]2C(=O)N1C,> 6.48 µM (inactive)
10,C=C1c2c(Cl)ccc(O)c2C(O)=C2C(=O)[C@]3(O)C(O)=C(C(N)=O)C(=O)[C@@H](N(C)C)[C@@H]3[C@@H](O)[C@H]12,2.58 µM
11,CCN1CCc2c(sc(NC(=S)NC(=O)/C=C/c3ccco3)c2C(N)=O)C1,> 6.48 µM (inactive)
12,O=C1N[C@@H](COCc2ccccc2)C(=O)N2CCN(C(=O)NCc3ccccc3)C[C@H]12,> 6.48 µM (inactive)
13,Cc1ccc(-c2nnc3s/c(=C\c4ccco4)c(=O)n23)cc1,> 6.48 µM (inactive)
14,O=C(NCC(c1cccs1)S(=O)(=O)c1ccc(Cl)cc1)c1ccco1 (stereo not drawn),> 6.55 µM (inactive)
15,c1ccc(-c2ccc(OCCCCn3cncn3)cc2)cc1,> 6.48 µM (inactive)
16,O=P(O)(O)C(Cl)(Cl)P(=O)(O)O,> 6.48 µM (inactive)
17,O=C(O)c1cc(N/N=C/c2ccc(N3CCOCC3)s2)ccc1Cl,3.77 µM
18,O=C(NNC(=O)c1cc(-c2ccco2)nc2ccccc12)NC1CCCCC1,> 6.48 µM (inactive)
19,COCCCNC(=O)/C(C#N)=C/c1ccc(-c2ccc(C(=O)O)c(Cl)c2)o1,> 6.48 µM (inactive)
20,O=C1NC(=S)N/C1=C\c1ccc([N+](=O)[O-])o1,> 7.74 µM (inactive)
21,CN(C)CCn1nnnc1SCC1=C(C(=O)O)N2C(=O)[C@@H](NC(=O)Cc3csc(N)n3)[C@H]2SC1,> 6.48 µM (inactive)
22,C=C1c2cccc(O)c2C(O)=C2C(=O)[C@]3(O)C(O)=C(C(N)=O)C(=O)[C@@H](N(C)C)[C@@H]3[C@@H](O)[C@H]12,> 6.48 µM (inactive)
23,O=C(OC1CCCC1=O)c1ccc(N2CCCC2=O)cc1 (stereo not drawn),> 7.22 µM (inactive)
24,CCc1ccc(NC(=O)CS(=O)CC(=O)NCCCc2ccccc2)cc1 (stereo not drawn),> 6.48 µM (inactive)

row,SMILES,IC50
1,O=C(Nc1ccc(C(=O)Nc2ccc(C(=O)Nc3ccc(S(=O)(=O)O)c4cc(S(=O)(=O)O)cc(S(=O)(=O)O)c34)cc2)cc1)Nc1ccc(C(=O)Nc2ccc(C(=O)Nc3ccc(S(=O)(=O)O)c4cc(S(=O)(=O)O)cc(S(=O)(=O)O)c34)cc2)cc1,> 6.48 µM (inactive)
2,COc1ccc2c(c1)C1NC(=S)N(c3cccc(C)c3)C(C)(O2)C1C(=O)Nc1ccc(C)cc1C (stereo not drawn),> 5.71 µM (inactive)
3,C/C(N)=C(/C#N)C(=O)COC(=O)c1c2c(nc3ccccc13)/C(=C/c1ccco1)CC2,> 6.27 µM (inactive)
4,CNC(=O)COc1cc(-c2cn[nH]c2)ccc1NC(=O)C1COc2ccc(OC)cc2C1 (stereo not drawn),> 6.48 µM (inactive)
5,COC(=O)CN1C(=O)S/C(=C/c2ccc([N+](=O)[O-])o2)C1=O,> 6.48 µM (inactive)
6,Cc1cc(/C=C2/C=CC(=O)O2)oc1C,> 7.29 µM (inactive)
7,Cc1ccc(N2C(=O)c3ccccc3NC2c2cccc([N+](=O)[O-])c2)cc1 (stereo not drawn),> 5.15 µM (inactive)
8,Oc1ccc(CCNc2cc(-c3cccs3)ncn2)cc1,> 6.7 µM (inactive)
9,O=C1N[C@@H](CSCc2ccccc2)C(=O)N2CCN(C(=O)NCc3ccccc3)C[C@H]12,> 6.48 µM (inactive)
10,CC(C)C[C@@H]1NC(=O)[C@H]2CN(C(=O)NC3CCCCC3)CCN2C1=O,> 6.48 µM (inactive)
11,COc1cc(OC)c(C(=O)OC2CCCC2=O)cc1OC (stereo not drawn),> 7.05 µM (inactive)
12,CC(Oc1ccc2c(C(F)(F)F)cc(=O)oc2c1)C(=O)NN (stereo not drawn),> 6.56 µM (inactive)
13,COC(=O)CSc1nnc(-c2cnccn2)n1C,> 6.48 µM (inactive)
14,O=C(COC(=O)/C=C/c1ccco1)NCc1ccco1,> 6.6 µM (inactive)
15,NC(=O)/C(=C\c1cccc([N+](=O)[O-])c1)NC(=O)c1ccc(Br)cc1,> 6.48 µM (inactive)
16,O=P(O)(O)C(O)(CCNC(=S)Nc1ccccc1)P(=O)(O)O,> 6.83 µM (inactive)
17,CN1C(=O)[C@H]2CN(C(=O)NC3CCCCC3)CCN2C(=O)[C@@H]1Cc1ccccc1,> 6.48 µM (inactive)
18,O=C(OC1CCCC1=O)c1ccc(S(=O)(=O)N2CCCCC2)cc1 (stereo not drawn),> 6.64 µM (inactive)
19,CCOC(=O)C1C2NC(=S)N(CC)C1(C)Oc1ccc(Br)cc12 (stereo not drawn),> 6.31 µM (inactive)
20,CC(C)N(C)CCOC(=O)/C=C/c1ccco1,> 6.48 µM (inactive)
21,COc1ccc2nc(-c3ccco3)c(-c3ccco3)nc2c1,inactive
